From article PMC8034185, “The rumen eukaryotome is a source of novel antimicrobial peptides with therapeutic potential” (BMC Microbiology, 2021)
Converted amounts (≈) assume the structure as drawn. Each block holds one compound with its values, some of them ahead of it. Ends that are not written are not given here.

What was measured:
Assay in all cases: microbe, parasite or virus in culture
P. aeruginosa PAO1 = format: cell-based, Pseudomonas aeruginosa; settings: modified broth microdilution, cation-adjusted Mueller Hinton broth, inoculum 5 × 10^5 CFU/mL, 18 h, quadruplicate, highest concentration tested 512 μg/mL
Protocol: (§1) MICs against a range of clinically important Gram-positive and Gram-negative bacteria strains including methicillin-sensitive Staphylococcus aureus (MSSA) RN4220 epidemic methicillin-resistant S. aureus-15 (EMRSA-15), methicillin-resistant S. aureus USA300 (MRSA USA300), Bacillus cereus, Enterococcus faecalis JH2–2, Escherichia coli K12, Salmonella enterica serovar Typhimurium SL1344, P. aeruginosa PAO1, and hospital isolates of Acinetobacter baummannii were determined in quadruplicate by a modified microdilution broth method [64] with a final bacterial inoculum concentration of 5 × 10^5 CFU/mL utilised as the test organisms. Cation-adjusted Mueller Hinton (MH) broth was innoclated overnight with a single colony of the tested microorganisms, subsequently grown for 16–24 h with shaking at 225 rpm, and further diluted in the same broth to a final concentration of 5 × 10^5 CFU/mL. The bacterial suspension was added to sterile U-bottomed 96-well plates, and the peptides and control antibiotics to be tested were dissolved in sterile distilled water and serially diluted in the wells. The MICs were recorded as the lowest peptide concentration that inhibited growth after incubation for 18 h [65].

A. baumannii S27379 Sen = format: cell-based, Acinetobacter baumannii; settings: sensitive hospital isolate, modified broth microdilution, cation-adjusted Mueller Hinton broth, inoculum 5 × 10^5 CFU/mL, 18 h, quadruplicate, highest concentration tested 512 μg/mL
Protocol: as §1

S. aureus MSSA (RN4220) = format: cell-based, Staphylococcus aureus; settings: modified broth microdilution, cation-adjusted Mueller Hinton broth, inoculum 5 × 10^5 CFU/mL, 18 h, quadruplicate; highest concentration tested 512 μg/mL
Protocol: as §1

A. baumannii IMI/MER-R = format: cell-based, Acinetobacter baumannii; settings: imipenem/meropenem resistant, modified broth microdilution, cation-adjusted Mueller Hinton broth, inoculum 5 × 10^5 CFU/mL, 18 h, quadruplicate, highest concentration tested 512 μg/mL
Protocol: as §1

P. aeruginosa H174 = format: cell-based, Pseudomonas aeruginosa; settings: modified broth microdilution, cation-adjusted Mueller Hinton broth, inoculum 5 × 10^5 CFU/mL, 18 h, quadruplicate, highest concentration tested 512 μg/mL
Protocol: as §1

A. baumannii DSMZ 30007 = format: cell-based, Acinetobacter baumannii; settings: modified broth microdilution, cation-adjusted Mueller Hinton broth, inoculum 5 × 10^5 CFU/mL, 18 h, quadruplicate, highest concentration tested 512 μg/mL
Protocol: as §1

S. aureus ATCC 33591 = format: cell-based, Staphylococcus aureus; settings: modified broth microdilution, cation-adjusted Mueller Hinton broth, inoculum 5 × 10^5 CFU/mL, 18 h, quadruplicate; highest concentration tested 512 μg/mL
Protocol: as §1

S. aureus USA300 = format: cell-based, Staphylococcus aureus; settings: modified broth microdilution, cation-adjusted Mueller Hinton broth, inoculum 5 × 10^5 CFU/mL, 18 h, quadruplicate; highest concentration tested 512 μg/mL
Protocol: as §1

B. cereus = format: cell-based, Bacillus cereus; settings: modified broth microdilution, cation-adjusted Mueller Hinton broth, inoculum 5 × 10^5 CFU/mL, 18 h, quadruplicate; highest concentration tested 512 μg/mL
Protocol: as §1

E. coli K12 = format: cell-based, Escherichia coli; settings: modified broth microdilution, cation-adjusted Mueller Hinton broth, inoculum 5 × 10^5 CFU/mL, 18 h, quadruplicate, highest concentration tested 512 μg/mL
Protocol: as §1

Sal. Tyhimurium (SL1344) = format: cell-based, Salmonella enterica serovar Typhimurium; settings: modified broth microdilution, cation-adjusted Mueller Hinton broth, inoculum 5 × 10^5 CFU/mL, 18 h, quadruplicate, highest concentration tested 512 μg/mL
Protocol: as §1

S. aureus EMRSA-15 = format: cell-based, Staphylococcus aureus; settings: modified broth microdilution, cation-adjusted Mueller Hinton broth, inoculum 5 × 10^5 CFU/mL, 18 h, quadruplicate; highest concentration tested 512 μg/mL
Protocol: as §1

Ent. faecalis (JH2–2) = format: cell-based, Enterococcus faecalis; settings: modified broth microdilution, cation-adjusted Mueller Hinton broth, inoculum 5 × 10^5 CFU/mL, 18 h, quadruplicate; highest concentration tested 512 μg/mL
Protocol: as §1

[1] = test system: A. baumannii S15785 OXA-23/0XA-50; format: cell-based, Acinetobacter baumannii; settings: modified broth microdilution, cation-adjusted Mueller Hinton broth, inoculum 5 × 10^5 CFU/mL, 18 h, quadruplicate, highest concentration tested 512 μg/mL
Protocol: as §1

Compound: KGLTVKFKVKN [Lub_376]
Minimum Inhibitory Concentration, P. aeruginosa PAO1 (P. aeruginosa PAO1): > 512 µg/mL
Minimum Inhibitory Concentration, A. baumannii S27379 Sen (A. baumannii S27379 Sen): > 512 µg/mL
Minimum Inhibitory Concentration, S. aureus MSSA (S. aureus MSSA (RN4220)): > 512 µg/mL
Minimum Inhibitory Concentration, A. baumannii IMI/MER-R (A. baumannii IMI/MER-R): > 512 µg/mL
Minimum Inhibitory Concentration, P. aeruginosa H174 (P. aeruginosa H174): > 512 µg/mL
Minimum Inhibitory Concentration, A. baumannii DSMZ 30007 (A. baumannii DSMZ 30007): > 512 µg/mL
Minimum Inhibitory Concentration, S. aureus ATCC 33591 (S. aureus ATCC 33591): > 512 µg/mL
Minimum Inhibitory Concentration, S. aureus USA300 (S. aureus USA300): > 512 µg/mL
Minimum Inhibitory Concentration, B. cereus (B. cereus): > 512 µg/mL
Minimum Inhibitory Concentration, E. coli K12 (E. coli K12): > 512 µg/mL
Minimum Inhibitory Concentration, Sal. Tyhimurium (Sal. Tyhimurium (SL1344)): > 512 µg/mL
Minimum Inhibitory Concentration, S. aureus EMRSA-15 (S. aureus EMRSA-15): > 512 µg/mL
Minimum Inhibitory Concentration, Ent. faecalis (Ent. faecalis (JH2–2)): > 512 µg/mL
Minimum Inhibitory Concentration, A. baumannii S15785 OXA-23/0XA-50 [1]: > 512 µg/mL

MIC (P. aeruginosa PAO1; Pseudomonas aeruginosa, PAO1, read-out: Minimum Inhibitory Concentration, P. aeruginosa PAO1): 0.06 µg/mL (≈ 0.166 µM)
MIC (A. baumannii S27379 Sen; Acinetobacter baumannii, S27379SEN, read-out: Minimum Inhibitory Concentration, A. baumannii S27379 Sen): 0.12 µg/mL (≈ 0.332 µM)
MIC (A. baumannii IMI/MER-R; Acinetobacter baumannii, read-out: Minimum Inhibitory Concentration, A. baumannii IMI/MER-R): 256 µg/mL (≈ 708 µM)
MIC (P. aeruginosa H174; Pseudomonas aeruginosa, H174, read-out: Minimum Inhibitory Concentration, P. aeruginosa H174): 0.5 µg/mL (≈ 1.38 µM)
MIC (A. baumannii DSMZ 30007; Acinetobacter baumannii, DSMZ30007, read-out: Minimum Inhibitory Concentration, A. baumannii DSMZ 30007): 0.25 µg/mL (≈ 0.692 µM)
MIC (E. coli K12; Escherichia coli, K12, read-out: Minimum Inhibitory Concentration, E. coli K12): 0.03 µg/mL (≈ 0.083 µM)
MIC (Sal. Tyhimurium (SL1344); Salmonella enterica, read-out: Minimum Inhibitory Concentration, Sal. Tyhimurium): 0.12 µg/mL (≈ 0.332 µM)
MIC ([1]; Acinetobacter baumannii, read-out: Minimum Inhibitory Concentration, A. baumannii S15785 OXA-23/0XA-50): > 512 µg/mL
Compound: C[C@H]1COc2c(N3CCN(C)CC3)c(F)cc3c(=O)c(C(=O)O)cn1c23 [Levofloxacin]
